Structures can show the parent of a compound that is named as a salt.
What was measured:
NCI-H929 = experiment: Cytostatic activity on human multiple myeloma cell line NCI-H929 (WST-1); assay type: cell-based; conditions: 72 hours; for inhibition at 10 µM / inhibition at 1 µM: Homo sapiens, NCI-H929, 72 h; for inhibition at 10 µM: read-out: cytostatic rate (%) H929 (10 μmol/L); for inhibition at 1 µM: read-out: cytostatic rate (%) H929 (1 μmol/L)
In short: (§1)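 Cells pre-cultured 24 h at 37 °C, 5% CO2, then exposed 72 h to compound at final 1 or 10 μmol/L (0.1% DMSO). WST-1 added for 2 h, absorbance at 450 nm (ref 690 nm). Cytostatic rate = 100 minus relative growth, with DMSO control as 100% and blank as 0%.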

KMS-11 = experiment: Cytostatic activity on human multiple myeloma cell line KMS-11 (WST-1); assay type: cell-based; conditions: 72 hours; for inhibition at 10 µM / inhibition at 1 µM: Homo sapiens, KMS-11, 72 h; for inhibition at 10 µM: read-out: cytostatic rate (%) KMS-11 (10 μmol/L); for inhibition at 1 µM: read-out: cytostatic rate (%) KMS-11 (1 μmol/L)
In short: as §1

AsPC-1 = experiment: Cytostatic activity on human pancreatic cancer cell line AsPC-1 (WST-1); assay type: cell-based; conditions: 10 μmol/L; for inhibition at 10 µM: Homo sapiens, ASPC1, 72 h, read-out: cytostatic rate (%) AsPC-1 (10 μmol/L); for cytostatic rate (%) AsPC-1 (10 μmol/L): 72 hours
Protocol: (§2) The cytostatic rates of the test compound on the human pancreatic cancer cell line AsPC-1 and the human colon cancer cell line Colo205 were determined in the following manner.
(§3) For culturing AsPC-1, RPMI 1640 medium containing 20% fetal bovine serum, 1 mmol/L sodium pyruvate, 10 mmol/L HEPES, 4.5 g/L glucose and penicillin/streptomycin (1:1). The Colo205 cell was cultured using RPMI 1640 medium containing 10% fetal bovine serum, 1 mmol/L sodium pyruvate, 10 mmol/L HEPES, 4.5 g/L glucose and penicillin/streptomycin (1:1) was used. Each 80 μL of the AsPC-1 cell having a concentration of 5×10^4 cells/mL (or the Colo205 having a concentration of 5×10^4 cells/mL) was inoculated to wells of a TC MICROWELL 96F plate (Nalge Nunc International, Catalog No. 167008) and was cultured in a 5% carbon dioxide gas incubator at 37° C. for 24 hours. Each 20 μL of a solution of the test compound in DMSO which was prepared to make the final concentration to 1 μmol/L or 10 μmol/L, was added to each well. Each 20 μL of DMSO was added to the control well and the blank well to a final concentration of 0.1%. After adding the test compound, the cell was incubated in a 5% carbon dioxide gas incubator at 37° C. for 72 hours except for the blank well. After adding 20 μL of WST-1 reagent which was diluted to 50% by RPMI medium to each well, the cells were further incubated at 37° C. for 2 hours. Then, the absorbances at 450 nm (reference wavelength: 690 nm) were determined with a microplate spectrophotometer SPECTRA max 340PC. The cytostatic rate (%) was then determined in the similar manner to the above multiple myeloma cell lines.

Colo205 = experiment: Cytostatic activity on human colon cancer cell line Colo205 (WST-1); assay type: cell-based; conditions: 10 μmol/L; for inhibition at 10 µM: Homo sapiens, COLO 205, 72 h, read-out: cytostatic rate (%) Colo205 (10 μmol/L); for cytostatic rate (%) Colo205 (10 μmol/L): 72 hours
Protocol: as §2, §3

IGF-1R = target: T1, IGF-1R (Homo sapiens, UniProt P08069); experiment: IGF-1R inhibitory activity (kinase reaction, time-resolved fluoroimmunoassay); assay type: biochemical; conditions: test compound 10 μmol/L
T1 construct: purchased Upstate Co. 14-465
T1 sequence (P08069 959-1367 limits assumed): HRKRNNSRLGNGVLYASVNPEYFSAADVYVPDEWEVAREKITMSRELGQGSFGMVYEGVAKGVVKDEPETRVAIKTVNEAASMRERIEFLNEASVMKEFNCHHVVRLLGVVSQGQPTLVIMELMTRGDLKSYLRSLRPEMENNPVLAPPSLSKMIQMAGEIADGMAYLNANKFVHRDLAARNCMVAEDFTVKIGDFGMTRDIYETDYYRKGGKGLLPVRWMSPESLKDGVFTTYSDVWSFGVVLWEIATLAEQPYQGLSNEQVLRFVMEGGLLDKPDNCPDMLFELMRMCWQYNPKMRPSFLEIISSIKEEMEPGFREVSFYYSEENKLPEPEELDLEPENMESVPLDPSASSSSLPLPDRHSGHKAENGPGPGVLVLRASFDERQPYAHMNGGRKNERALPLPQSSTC
In short: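 Compounds were tested at a single 10 μmol/L concentration. Each was incubated with recombinant IGF-1R (200 μg/L), 10 mmol/L ATP, MgCl2/MnCl2 and Na3VO4 (pH 7.5) on immobilized poly(Glu-Tyr) peptide for 30 min at 24° C. Eu-anti-phosphotyrosine time-resolved fluorescence (340/615 nm) gave relative activity against no-compound and no-enzyme wells, reported as % inhibition.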

[1] = IGF-1R active recombinant enzyme

Row | SMILES | inhibition at 10 µM (NCI-H929; 10 μmol/L) [%] | inhibition at 10 µM (KMS-11; 10 μmol/L) [%] | inhibition at 10 µM (AsPC-1) [%] | inhibition at 10 µM (Colo205) [%] | inhibition at 10 µM (IGF-1R; [1]) [%] | inhibition at 1 µM (NCI-H929; 1 μmol/L) [%] | inhibition at 1 µM (KMS-11; 1 μmol/L) [%] | further results
1 | Cn1cccc1C(=O)Nc1ccccc1/C=C/c1n[nH]c2ccccc12 [Compound 29, (E)-N-{2-[2-(1H-indazol-3-yl)vinyl]phenyl}-1-methyl-1H-pyrrole-2-carboxamide] | 117 | 112 | 66.1 | 114 | 97.9 | – | – | –
2 | Cc1ccsc1C(=O)Nc1ccccc1/C=C/c1n[nH]c2ccccc12 [Compound 41, (E)-N-{2-[2-(1H-indazol-3-yl)vinyl]phenyl}-3-methylthiophene-2-carboxamide] | 121 | 109 | 85.5 | 115 | 98.6 | – | – | –
3 | O=C(Nc1ccccc1/C=C/c1n[nH]c2ccccc12)c1cc2ccccc2s1 [Compound 46, (E)-N-{2-[2-(1H-indazol-3-yl)vinyl]phenyl}benzo[b]thiophene-2-carboxamide] | 118 | 115 | 120 | 112 | 97.8 | – | – | –
4 | O=C(Nc1ccccc1/C=C/c1n[nH]c2ccccc12)c1ccccc1 [Compound 85, (E)-N-{2-[2-(1H-indazol-3-yl)vinyl]phenyl}benzamide] | 134 | 124 | 125 | 116 | – | – | – | inhibition at 10 µM (IGF-1R): 99.5%
5 | Cc1ccsc1C(=O)Nc1cc(C(=O)N2CCOCC2)ccc1/C=C/c1n[nH]c2ccccc12 [Compound 100, (E)-N-{2-[2-(1H-indazol-3-yl)vinyl]-5-(morpholin-4-ylcarbonyl)phenyl}-3-methylthiophene-2-carboxamide] | 122 | 115 | 108 | 121 | – | – | – | inhibition at 10 µM (IGF-1R): 98.6%
6 | Cc1ccsc1C(=O)Nc1cc(CO)ccc1/C=C/c1n[nH]c2ccccc12 [Compound 108, (E)-N-{5-hydroxymethyl-2-[2-(1H-indazol-3-yl)vinyl]phenyl}-3-methylthiophene-2-carboxamide] | 123 | 110 | 87.9 | 121 | – | – | – | inhibition at 10 µM (IGF-1R): 95%
7 | COc1cccc(/C=C/c2n[nH]c3ccccc23)c1NC(=O)c1cccn1C [Compound 109, (E)-N-{2-[2-(1H-indazol-3-yl)vinyl]-6-methoxyphenyl}-1-methyl-1H-pyrrole-2-carboxamide] | 116 | 117 | 114 | 123 | – | – | – | inhibition at 10 µM (IGF-1R): 103%
8 | Cc1ccsc1C(=O)Nc1cc(C(=O)N2CCOCC2)ccc1/C=C/c1n[nH]c2ccccc12.Cl [Compound 115, (E)-N-{2-[2-(1H-indazol-3-yl)vinyl]-5-(morpholin-4-ylcarbonyl)phenyl}-3-methylthiophene-2-carboxamide hydrochloride] | – | – | – | – | – | – | – | cytostatic rate (%) H929 (10 μmol/L) (NCI-H929; 10 μmol/L): 120.0%; cytostatic rate (%) KMS-11 (10 μmol/L) (KMS-11; 10 μmol/L): 115.5%; cytostatic rate (%) AsPC-1 (10 μmol/L) (AsPC-1): 108.7%; cytostatic rate (%) Colo205 (10 μmol/L) (Colo205): 121.6%; inhibitory activity (%) at 10 μmol/L (IGF-1R): 100.1%
9 | Nc1cccc2c1C(=O)N(c1cc3c(cc1/C=C/c1n[nH]c4ccccc14)OCO3)C2=O [Compound 152, (E)-4-amino-2-{6-[2-(1H-indazol-3-yl)vinyl]benzo[1,3]dioxol-5-yl}isoindole-1,3-dione] | 122 | 116 | 72.1 | 86.7 | 99.5 | – | – | –
10 | Nc1ccc2c(c1)C(=O)N(c1cc3c(cc1/C=C/c1n[nH]c4ccccc14)OCO3)C2=O [Compound 153, (E)-5-amino-2-{6-[2-(1H-indazol-3-yl)vinyl]benzo[1,3]dioxol-5-yl}isoindole-1,3-dione] | 122 | 129 | 77 | 114 | 99.8 | – | – | –
11 | Nc1cccc2c1C(=O)N(c1ccccc1/C=C/c1n[nH]c3ccccc13)C2=O [Compound 194, (E)-4-amino-2-{2-[2-(1H-indazol-3-yl)vinyl]phenyl}isoindole-1,3-dione] | 119 | 143 | 75.3 | 97.9 | 102 | – | – | –
12 | CN(C(=O)c1ccc[nH]1)c1cc(C(=O)N2CCOCC2)ccc1/C=C/c1n[nH]c2ccccc12 [Compound 217, (E)-N-{2-[2-(1H-indazol-3-yl)vinyl]-5-(morpholin-4-ylcarbonyl)phenyl}-N-methylpyrrole-2-carboxamide hydrochloride] | – | – | 91.9 | 122 | 96.6 | 113 | 128 | –
13 | Cc1ccsc1C(=O)Nc1cc(C(=O)N2CCN(S(C)(=O)=O)CC2)ccc1/C=C/c1n[nH]c2ccccc12 [Compound 222, (E)-N-{2-[2-(1H-indazol-3-yl)vinyl]-5-(4-methanesulfonylpiperazin-1-ylcarbonyl)phenyl}-3-methylthiophene-2-carboxamide hydrochloride] | – | – | 114 | 123 | 98.7 | 118 | 108 | –
14 | Cc1ccsc1C(=O)Nc1cc(CN2CC[C@@H](N)C2)ccc1/C=C/c1n[nH]c2ccccc12 [Compound 233, (R)-(E)-N-{5-(3-aminopyrrolidin-1-ylmethyl)-2-[2-(1H-indazol-3-yl)vinyl]phenyl}-3-methylthiophene-2-carboxamide] | – | – | 89.1 | 123 | 106 | 118 | 102 | –
15 | Cc1ccsc1C(=O)Nc1cc(CN2CCN(CCO)CC2)ccc1/C=C/c1n[nH]c2ccccc12 [Compound 239, (E)-N-{5-[4-(2-hydroxyethyl)piperazin-1-ylmethyl]-2-[2-(1H-indazol-3-yl)vinyl]phenyl}-3-methylthiophene-2-carboxamide] | – | – | 102 | 121 | 101 | 115 | 152 | –
16 | COCCN(CCN(C)C)C(=O)c1ccc(/C=C/c2n[nH]c3ccccc23)c(NC(=O)c2sccc2C)c1 [Compound 241, (E)-N-{5-[N-(2-dimethylaminoethyl)-N-(2-methoxyethyl)carbamoyl]-2-[2-(1H-indazol-3-yl)vinyl]phenyl}-3-methylthiophene-2-carboxamide hydrochloride] | – | – | 104 | 121 | 101 | 112 | 118 | –
17 | Cc1ccsc1C(=O)Nc1cc(CN2CCNCC2)ccc1/C=C/c1n[nH]c2ccccc12 [Compound 242] | – | – | – | – | – | – | – | cytostatic rate (%) H929 (1 μmol/L) (NCI-H929; 1 μmol/L): 111.1%; cytostatic rate (%) KMS-11 (1 μmol/L) (KMS-11; 1 μmol/L): 106.8%; cytostatic rate (%) AsPC-1 (10 μmol/L) (AsPC-1): 87.1%; cytostatic rate (%) Colo205 (10 μmol/L) (Colo205): 119.7%; inhibitory activity (%) at 10 μmol/L (IGF-1R; [1]): 102.1%
18 | Cc1ccsc1C(=O)Nc1cc(CNCCN2CCOCC2)ccc1/C=C/c1n[nH]c2ccccc12 [Compound 245, (E)-N-{2-[2-(1H-indazol-3-yl)vinyl]-5-[2-(morpholin-4-yl)ethylaminomethyl]phenyl}-3-methylthiophene-2-carboxamide] | – | – | 102 | 121 | 99.9 | 126 | 118 | –

From patent US7605272B2, “IGF-1R inhibitor” (Kyowa Hakko Kirin Co., Ltd., priority 2005, dated 2009)
